These results are taken from US12208071B2, “Glucagon receptor antagonists” (LIGAND PHARMACEUTICALS INCORPORATED, priority 2018, dated 2025).

Series [1] is described as follows: Aqueous solubility, 24 hours at 25° C., HPLC. The settings on record: for solubility at 24 h: 25 °C, thermodynamic from solid; for solubility at 24 h / Solubility: 24 hours at 25° C., n = 2. It is filed as physicochemical. As for the experimental part:
The testing media: Water, pH 4.0, 6.8, 7.4, 10.0 USP buffers (50 mM), 0.1N HCl, 0.01N HCl, SGF, FaSSIF, FeSSIF.
About 10 mg of Polymorph Form A was weighed and added to a 1.5 mL vial, and then 1.0 mL of aqueous media was added into the vial. The vial was shaken for 24 hours at 25° C. After equilibration for 24 hours, the mixture was centrifuged at 14000 rpm for 10 mins. The concentration of supernatant was checked by HPLC and the residuals were checked by XRPD. The final pH of supernatant was recorded. Experiments were conducted in duplicate.

Series [2] in a line: pKa measurement (Sirius T3, pH-metric and UV-metric). In kind it is physicochemical. As to conditions: pH-metric (MeOH, DMSO, Dioxane co-solvent) and UV-metric (DMSO) methods, pH 1.0 to pH 11.0. As for the experimental part: There are two methods available on the Sirius T3 for pKa measurement: potentiometric titration and spectroscopic (UV) titration.
Potentiometric Titration Method is a method which works for any ionicable compound and its standard working range is pH 3.0 to pH 11.0. […] Where this cannot be achieved, the use of organic co-solvents to enhance the solubility is employed.
Its available pH range is typically between 0.5 and 13.5. A compound concentration of 50 μM is typically used, i.e., ten fold lower than the pH-metric method. Co-solvent determination may also be performed when the assayed compounds remain insoluble under all other conditions.
When co-solvent solutions had been employed by pH-metric method or UV-metric method, the psKa values are extrapolated to zero percent organic content using the Yasuda-Shedlovsky extrapolation procedure, which yields extrapolated aqueous pKa values and slope information which can be used to ascertain the acidic/basic characteristics of the ionisable groups.
About 1 mg of Polymorph Form A was weighed into a sample vial, about 1.5 mL of co-solvent (60v % DMSO, 80v % MeOH or 60v % Dioxane) was added into the vial manually, then titrated with acid or base to obtain a psKa value with co-solvent and water, and extrapolated to get aqueous pKa value. Tables 7-9 below and FIGS. 7A-9B provide the results of pKa determination by pH metric method. […]

“Also recorded” adds a separate entry of the source.

Turning to `Cc1cc(C)c(-c2ccc(NC(=O)[C@H](Cc3ccc(C(=O)NCCS(=O)(=O)[O-])cc3)c3ccc(-c4ccc(C(C)(C)C)cc4)cc3)cc2)c(C)c1.[Na+]` [Polymorph Form A, Sodium (R)-2-(4-(2-(4′-(tert-butyl)-[1,1′-biphenyl]-4-yl)-3-oxo-3-((2′,4′,6′-trimethyl-[1,1′-biphenyl]-4-yl)amino)propyl)benzamido)ethane-1-sulfonate], the “Form (XRPD of residual after solubility test)” value in series [1] (0.01N HCl), in series [1] (0.1N HCl), in series [1] (FaSSIF), in series [1] (FeSSIF), in series [1] (SGF) and in series [1] (pH 4.0 buffer) was “Form A” throughout. The “Form (XRPD of residual after solubility test)” value in series [1] (pH 6.8 buffer), in series [1] (pH 7.4 buffer), in series [1] (pH 10.0 buffer) and in series [1] (water) was “Form A” in each case. Further, the solubility – broadly, the concentration that dissolves in the medium under given conditions – at 24 h in series [1] (0.01N HCl, pH 2.24, simulated gastric fluid, initial pH 1.97, final pH 2.24) was less than 100 µg/mL; in series [1] (0.1N HCl, pH 1.08, simulated gastric fluid, initial pH 1.02, final pH 1.08), less than 100 µg/mL; in series [1] (pH 4.0 USP buffer (50 mM), pH 4, aqueous buffer, pH 4.0 buffer, initial pH 4.05, final pH 4.13) it was less than 100 µg/mL; in series [1] (pH 6.8 USP buffer (50 mM), pH 6.8, aqueous buffer, pH 6.8 buffer, initial pH 6.84, final pH 6.87), less than 100 µg/mL; in series [1] (pH 7.4 USP buffer (50 mM), pH 7.4, aqueous buffer, pH 7.4 buffer, initial pH 7.43, final pH 7.46) it was less than 100 µg/mL. Moreover, the Solubility – broadly, how much of the substance goes into solution per volume – in series [1] (0.01N HCl, initial pH 1.97, final pH 2.24) is 70 ± 0 µg/mL; in series [1] (0.1N HCl, initial pH 1.02, final pH 1.08), 60 ± 0 µg/mL; in series [1] (pH 4.0 buffer, initial pH 4.05, final pH 4.13) it was 50 ± 10 µg/mL; in series [1] (pH 6.8 buffer, initial pH 6.84, final pH 6.87) it was 50 ± 0 µg/mL; in series [1] (pH 7.4 buffer, initial pH 7.43, final pH 7.46), 60 ± 10 µg/mL. In addition, the “XRPD after solubility test (overall)” value in series [1] (all aqueous media) is given as “no new forms were found; also recorded: no change”. Further, the pKa result in series [2] was “could not be detected”.
